Data from patent publication US20250041422A1, “METHOD OF TREATING ARRHYTHMIA, POPULATION OF PACEMAKER CARDIOMYOCYTES, AND METHOD OF TREATING CARDIAC ARRHYTHEMIA USING POPULATION OF PACEMAKER CARDIOMYOCYTES” (priority 2022, published 2025).
Entries after “also recorded” stand apart in the source; their conditions may differ.

How the values were obtained:
aldolase c (Aldoc) = experiment: Aldoc transcripts by quantitative real-time PCR in treated Tbx18-PC/fibroblast cocultures; type: cell-based, rat; conditions: for transcriptional expressions of Aldolase C / Aldolase C expressions: 4 days; for aldolase c expressions within pacemaker cardiomyocytes: in-vitro, summary statement, concentration not given at the place
Procedure: (§1) The Tbx18-PCs were used as the cell model of pacemaker cardiomyocytes, which were generated by the transduction of VMs with adenoviral human Tbx18 (MOI [multiplicity of infection]: 10; green fluorescent protein [GFP] reporter, ADV-225152, Vector Biolabs, Malvern, USA) for 24 hours (Kapoor et al; Hu et al.). Those with adenovirus-CMV-GFP were used as control VMs (Tsai et al., J Biomed Sci, 2015). For the cocultures of Tbx18-PCs and fibroblasts, a ratio of fibroblasts/VMs ( 1/10) was first plated on fibronectin-coated wells, and adenoviral Tbx18 was transduced for 24 hours one day after seeding to induce PCs. […] Therefore, the beating rates, metabolic and molecular phenotypes, including microelectrode array (MEA), whole transcriptomes, Seahorse analysis, metabolomics, glycolysis metabolites (lactate or DHAP), protein and gene transcripts were analyzed 3-5 days after Tbx18 transduction. The beating rates were recorded by MEA or video. An inverted microscope (AXIO Observer Al, Carl Zeiss AG, Oberkochen, Germany) was used for 10-second video capture. Video was analyzed with Q Capture Pro 6.0 (Teledyne Technologies, CA, USA).
For the experiments of drug treatment, Tbx18-PCs after re-expression of Tbx18 were treated with sodium pyruvate (1 mM, 11360-070, Thermo Fisher Scientific, 3 days), 2-deoxy-D-glucose (2-DG, 5 mM, D8375, Sigma-Aldrich, 3 days), wortmannin (PI3K inhibitor, 100 nM, 12-338, Merck Millipore, MA, USA, 4 days), anti-integrin β1 monoclonal antibody (ltgb1, MAB1987Z, 10 μg/mL, Merck Millipore, 2 days), or SB203580 (p38-MAP kinase inhibitor, 559389, 1 μM, Merck Millipore, 3 days), respectively. Then the beating rate and gene expression were analyzed. […]
(§2) Total RNA was extracted from cultured VMs using the RNeasy® Mini Kit (74106, Qiagen, Venlo, Netherlands). Complementary DNAs (cDNAs) were synthesized using a SuperScript® […] First-Strand Synthesis System (18080051, Thermo Fisher Science). Quantitative real-time PCR (qRT-PCR) was performed using Applied Biosystems™ StepOnePlus Real-Time PCR system with TaqMan probe assays (4331182, Invitrogen, Waltham, Massachusetts, USA) and PrimeTime qPCR Probe Assays (Integrated DNA Technologies, Inc., Coralville, Iowa, USA). The internal control was Gapdh. The conditions of thermocycle used in amplification were denaturation at 95° C. for 15 seconds and annealing and extension step at 60° C. for 60 seconds by 40 cycles. The relative values of gene transcripts were analyzed by ΔΔCt method. All the probes used are listed below in Table 1.
(§3) The cocultures of Tbx18-pacemaker cardiomyocytes (PCs) and fibroblasts, a ratio of fibroblasts/VMs ( 1/10) was first plated on fibronectin-coated wells, and adenoviral Tbx18 (MOI [multiplicity of infection]: 10, ADV-225152, Vector Biolabs, Malvern, USA) was transduced for 24 hours after seeding to induce PCs. After re-expression of Tbx18 were treated with the inhibitors of PI3K (wortmannin, PIK-75, Duvelisib, Alpelisib, Copanlisib, Idelalisib, and Eganelisib), and one IKK inhibitor (BMS-345541) for 4 days. Then the beating rate and Aldoc transcriptional expressions were analyzed. The beating rates were recorded by video. An inverted microscope (AXIO Observer Al, Carl Zeiss AG, Oberkochen, Germany) was used for 10-second video capture. We analyzed the video with Q Capture Pro 6.0 (Teledyne Technologies, CA, USA). Aldoc gene transcriptional expressions were analyzed by quantitative real-time PCR. The protocol is as same as the treatment described previously (FIGS. 31A-31B).
Total RNA was extracted from cultured VMs using the RNeasy® Mini Kit (74106, Qiagen, Venlo, Netherlands). Complementary DNAs (cDNAs) were synthesized using a SuperScript® […] First-Strand Synthesis System (18080051, Thermo Fisher Science). […]

[1] = system: Tbx18-induced pacemaker cardiomyocytes; experiment: Beating rate / electrical firing rate of Tbx18-induced pacemaker cardiomyocytes (video or MEA); type: cell-based, rat
Procedure: as §1
(§4) For the experiments of drug treatment, Tbx18-PCs after re-expression of Tbx18 were treated with sodium pyruvate (1 mM, 11360-070, Thermo Fisher Scientific, 3 days), 2-deoxy-D-glucose (2-DG, 5 mM, D8375, Sigma-Aldrich, 3 days), wortmannin (PI3K inhibitor, 100 nM, 12-338, Merck Millipore, MA, USA, 4 days), anti-integrin β1 monoclonal antibody (ltgb1, MAB1987Z, 10 μg/mL, Merck Millipore, 2 days), or SB203580 (p38-MAP kinase inhibitor, 559389, 1 μM, Merck Millipore, 3 days), respectively. Then the beating rate and gene expression were analyzed.
(§5) Tbx18-PCs or human IPS-CMs were transduced with human Aldoc adenovirus (CMV promotor, 068583A, Applied Biological Materials, Richmond, BC, Canada), and CMV-null adenovirus was used as a control (000047A, Applied Biological Materials) for 24 hours. Aldoc overexpression was confirmed by Aldoc transcripts (FIG. 1J). The protein, gene transcripts, and beating rates were analyzed 3 days after transduction. The viral titer used in cell transduction of aldolase c overexpression is MOI of 10. The transduced cells were not subjected to enrichment by the antibiotic selection.
MEA was used to record electrical firing in Tbx18-PCs, Tbx18-PC tissue sheets, or human IPS-CMs. The cells or tissue sheets were seeded on fibronectin-coated MEA CytoView MEA 24-White plate at 37° C. and 5% C02 (M384-tMEA-24W, Axion BioSystems, Atlanta, USA). The electrical firing rates were recorded by Maestro Edge (Axion BioSystems). The continuous recording of electrical signals for 5 minutes was used for the analysis (sampling frequency: 12.5 kHz, low pass and high pass filter: 2 kHz and 0.1 Hz) by AxIS Navigator software Axion BioSystems. In human IPS-CMs, the cells were further treated with epinephrine (150 ng/mL, Taiwan Biotech Co., Ltd) after recording baseline electrical firing rate. Similarly, continuous recording of electrical signals for 5 minutes after the treatment was used for the analysis.
as §3, with “The protocol is as same as the treatment described previously (FIGS. 31A-31B).” left out

Hcn4 = Hcn4 expression in Tbx18-induced pacemaker cardiomyocytes (real-time PCR); type: cell-based, rat; conditions: for Hcn4 expression: 3 days, Tbx18-PCs
Procedure: as §4, §5, §2

Tbx18-PC tissue sheets = experiment: Beating rate / electrical firing of engineered Tbx18-PC tissue sheets; type: cell-based, rat; conditions: epinephrine 0.15 μg/mL
Procedure: The fibroblasts and VMs were mixed in a ratio of 1:10 (fibroblast/VMs, total cell number: 1×10^6) with an extracellular matrix of 10% Matrigel (354230, Corning®) in the cultured-insert (80209, 0.22 mm^2, ibidi GmbH, Grsfelfing, Germany) for gelation at 37° C. The engineered tissue was transduced with adenoviral human Tbx18 or control vectors 24 hours after gelation. The constant beating was usually observed 4-5 days after Tbx18 adenovirus transduction. Therefore, phenotypes were determined using immunofluorescence staining, beating rate (either video recording or microelectrode array), and real-time quantitative PCR after virus transduction for 5-6 days. The autonomic response of Tbx18-PC tissue sheets was evaluated by treatment with epinephrine (Taiwan Biotech Co., Ltd, Taoyuan, Taiwan).
The Tbx18-PC cocultures were treated with 200 nM siRNAs (Dharmacon™, GE Healthcare, Lafayette, CO, USA or GenePharma, Shanghai, China) or negative controls (nontarget siRNAs, D-001810-10-05, Dharmacon™ or negative controls, GenePharma) for 24 hours using DharmaFECT transfection reagent (Dharmacon™) in serum-free and antibiotic-free medium. Cells were incubated at 37° C. in 5% C02 for 96 hours, and the beating rate was recorded by microelectrode array (MEA) or video. Then, total RNA was extracted for real-time PCR analysis. […]

mouse SAN = experiment: Heart rate recording (ECG) in mice; type: in vivo; conditions: epinephrine 2.5 μg intraperitoneal, control (scramble) mice
Procedure: Male mice (C57BL/6, 26 to 32 g, 13-14 weeks, National Laboratory Animal Center, Taiwan) were mechanically ventilated at a controlled temperature (37° C.±0.5° C.) under general anesthesia (isoflurane). […] AAV9 siRNA or scramble virus with a reporter of green fluorescent protein (1.44×10^9 gene copies; AAV9 scramble siRNA [iAAV01509] and Aldoc siRNA pooled virus [117530940219], Applied Biological Materials, Canada) was added to the pericardial recess through the opening. […] The survival rate was 100%. All animals were included except one scramble animal. One animal from the scramble group was excluded because arrhythmia was observed before the experiment.
Two weeks later, the three-lead surface ECG (Biopac, MP36, CA, USA) was recorded on mice by inserting needle electrodes subcutaneously into the limbs after anesthesia. The heart rate was recorded for 2 minutes first to compare the knockdown and control groups. Then, we performed a peritoneal injection of epinephrine (2.5 μg, Taiwan Biotech) and recorded the heart rate for 5 minutes after the injection. After the recording, the mouse hearts were removed for tissue analysis. ECG data were analyzed by Biopac Student Lab 4.1 software (Biopac).

[2] = in-vitro, summary statement, concentration not given at the place

In the case of `C[C@H](Nc1ncnc2nc[nH]c12)c1cc2cccc(Cl)c2c(=O)n1-c1ccccc1` [Duvelisib], the “transcriptional expressions of Aldolase C” value (from here on “transcriptional expressions”) (aldolase c (Aldoc); 50 nM, control 0.82±0.08, P=0.02) is reported as 1.17±0.11.
With `COc1c(OCCCN2CCOCC2)ccc2c1N=C(NC(=O)c1cnc(N)nc1)N1CCN=C21` [Copanlisib] the beating rates [1, 2] was “increased”, the “transcriptional expressions” value (aldolase c (Aldoc); 10 nM, control 0.64±0.09, P=0.002) was 1.32±0.09 and the “aldolase c expressions within pacemaker cardiomyocytes” value (aldolase c (Aldoc)) was “increased”.
With `Cc1ccc2nc(NCCN)c3ncc(C)n3c2c1` [BMS-345541] the Hcn4 expressions (Hcn4; BMS-345541 5 μM, vs control) was “increased”, the beating rate ([1]; BMS-345541 1-10 μM, 4 days, vs control) was “increased” and the beating rates [1, 2] was “increased”. The “Aldolase C expressions” value (aldolase c (Aldoc); BMS-345541 5 μM, vs control) was “increased” and the “aldolase c expressions within pacemaker cardiomyocytes” value (aldolase c (Aldoc)) was “increased”.
`O=CC[C@@H](O)[C@H](O)[C@H](O)CO` [2-DG, 2-deoxy-D-glucose] was tested, and the Hcn4 expression (Hcn4; 2-DG 5 mM) was “decreased” and the beating rate ([1]; 2-DG 5 mM, 3 days, Tbx18-PCs) was “decreased”.
With `Cc1ccc([N+](=O)[O-])cc1S(=O)(=O)N(C)/N=C/c1cnc2ccc(Br)cn12` [PIK-75] the beating rate ([1]; PIK-75 high dose (10 nM), 4 days, vs control) was “increased”, the beating rate ([1]; PIK-75 low dose (1-5 nM), 4 days, vs control) was “increased” and the beating rates [1, 2] was “increased”. For the same compound, the “Aldolase C expressions” value (aldolase c (Aldoc); PIK-75 high dose (10 nM), vs control) was “increased” and the “aldolase c expressions within pacemaker cardiomyocytes” value (aldolase c (Aldoc)) was “increased”.
For `C[C@H](NC(=O)c1c(N)nn2cccnc12)c1cc2cccc(C#Cc3cnn(C)c3)c2c(=O)n1-c1ccccc1` [Eganelisib], the beating rates [1, 2] was “increased”, the “transcriptional expressions” value (aldolase c (Aldoc); 40 nM, control 0.57±0.03, P=0.013) was 0.82±0.07 and the “aldolase c expressions within pacemaker cardiomyocytes” value (aldolase c (Aldoc)) was “increased”.
`CC(=O)C(=O)[O-].[Na+]` [sodium pyruvate] was tested, and the Hcn4 expression (Hcn4; sodium pyruvate 1 mM) was “increased” and the beating rates ([1]; sodium pyruvate 1 mM, 3 days, Tbx18-PCs) was “increased”.
For `C[S+]([O-])c1ccc(-c2nc(-c3ccncc3)c(-c3ccc(F)cc3)[nH]2)cc1` (stereo not shown) [SB203580], the Aldoc expression (aldolase c (Aldoc); SB203580 1 μM, 3 days, cocultures, vs control) was “decreased; also recorded: reduced”.
In the case of `Cc1nc(NC(=O)N2CCC[C@H]2C(N)=O)sc1-c1ccnc(C(C)(C)C(F)(F)F)c1` [Alpelisib], the beating rates [1, 2] is reported as “increased”, the “transcriptional expressions” value (aldolase c (Aldoc); 250 nM, control 0.87±0.05, P=0.008) is reported as 1.13±0.05 and the “aldolase c expressions within pacemaker cardiomyocytes” value (aldolase c (Aldoc)) is reported as “increased”.
In the case of `CC[C@H](Nc1ncnc2[nH]cnc12)c1nc2cccc(F)c2c(=O)n1-c1ccccc1` [Idelalisib], the beating rates [1, 2] is reported as “increased”, the “transcriptional expressions” value (aldolase c (Aldoc); 100 nM, control 0.87±0.05, P=0.02) is reported as 1.01±0.02 and the “aldolase c expressions within pacemaker cardiomyocytes” value (aldolase c (Aldoc)) is reported as “increased”.
With `CNC[C@H](O)c1ccc(O)c(O)c1` [epinephrine] the beating rate (Tbx18-PC tissue sheets; Tbx18-PC tissue sheets) was “increased”, the beating rate (Tbx18-PC tissue sheets; control tissue sheets) was “minimal changes” and the heart rate (mouse SAN) was “increased”.
